Data on seven compounds can be found in US20190030114A1, “ISOFORM-SPECIFIC CALPAIN INHIBITORS, METHODS OF IDENTIFICATION, AND USES THEREOF” (WESTERN UNIVERSITY OF HEALTH SCIENCES, priority 2014, published 2019).

Assay [1] deals with Akt and ERK. Nature of the assay: Akt and ERK phosphorylation in cultured cortical neurons, immunoblot. Type of assay: cell-based. The following applies: for Akt and ERK phosphorylation (pAkt/Akt, pERK/ERK): peptide 1.5 μM, 30 min. An excerpt:
Pre-treatment with Calpain-2 C-terminal peptide had no effect on Akt and ERK levels. Columns represent means±S.E.M. n=3-6. *p<0.05. One-way ANOVA followed by Bonferroni test.
A general note: Immunoblotting shows a protein as a band on a membrane.

Assay [2] has as its target T1, calpain-1 (Homo sapiens, UniProt P07384).
T1 sequence (P07384 1-714): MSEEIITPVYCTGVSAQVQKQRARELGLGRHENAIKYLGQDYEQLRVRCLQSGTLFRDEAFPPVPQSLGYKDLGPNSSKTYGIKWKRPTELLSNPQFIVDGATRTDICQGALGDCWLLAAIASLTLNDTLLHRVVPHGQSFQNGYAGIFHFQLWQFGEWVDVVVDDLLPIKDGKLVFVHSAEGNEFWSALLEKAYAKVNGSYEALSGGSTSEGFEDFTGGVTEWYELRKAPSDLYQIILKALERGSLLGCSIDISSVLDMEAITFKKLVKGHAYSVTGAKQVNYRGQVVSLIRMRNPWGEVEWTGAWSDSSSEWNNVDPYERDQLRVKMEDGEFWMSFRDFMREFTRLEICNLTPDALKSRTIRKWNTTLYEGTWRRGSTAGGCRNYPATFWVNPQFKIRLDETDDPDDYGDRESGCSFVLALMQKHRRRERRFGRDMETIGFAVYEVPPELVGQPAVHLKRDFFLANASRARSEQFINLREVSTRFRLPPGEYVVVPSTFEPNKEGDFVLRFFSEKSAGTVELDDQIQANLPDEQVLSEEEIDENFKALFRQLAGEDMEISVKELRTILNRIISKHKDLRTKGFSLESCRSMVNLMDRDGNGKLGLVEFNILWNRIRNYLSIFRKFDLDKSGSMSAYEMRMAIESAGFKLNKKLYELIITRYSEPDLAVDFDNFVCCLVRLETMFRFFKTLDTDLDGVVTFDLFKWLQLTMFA
T1 sequence (P04632 1-268 partner): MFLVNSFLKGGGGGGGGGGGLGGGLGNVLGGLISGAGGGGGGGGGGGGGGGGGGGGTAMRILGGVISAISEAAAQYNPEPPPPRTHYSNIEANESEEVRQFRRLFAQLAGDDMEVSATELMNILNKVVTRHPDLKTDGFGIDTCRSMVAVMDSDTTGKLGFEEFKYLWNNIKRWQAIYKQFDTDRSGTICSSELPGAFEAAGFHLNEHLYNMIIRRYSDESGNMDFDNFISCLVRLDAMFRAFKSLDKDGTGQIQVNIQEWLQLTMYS
Briefly: in vitro calpain-1 inhibition, succinic-Leu-Tyr-AMC substrate. The following applies: n = 3-5; for Ki: Example 13, read-out: Ki Calpain-1. Type of assay: biochemical. Here is the method:
(§1) Formula 1, where chiral center 1 is the L-form and chiral center 2 is a racemic mixture of D- and L- in this example was introduced at various concentrations (from 1 nM to 10 μM) into an in vitro mix comprising succinic-Leu-Tyr-AMC and calpain-1 or calpain-2 (Sasaki et al, 1984), and the kinetics of the loss of fluorescence were determined for each of the calpains (Powers et al, 2000). […] Therefore, the assessment of selectivity described herein was different than the prior teaching.
(§2) Formula 1A, where chiral center 1 is the S-form and chiral center 2 is the S-form was separated from the S-R-form (Formula 1B) using methods that are well-known methods for separating diastereoisomers. Formula 1A, which is also referred to herein as compound 18A, in this example was introduced at various concentrations into an in vitro mix comprising succinic-Leu-Tyr-AMC and μ-calpain or m-calpain (Sasaki et al, 1984), and the kinetics of the loss of fluorescence were determined for each of the calpains.

Assay [3] concerns the target T2, calpain-2 (Homo sapiens, UniProt P17655).
T2 sequence (P17655 1-700): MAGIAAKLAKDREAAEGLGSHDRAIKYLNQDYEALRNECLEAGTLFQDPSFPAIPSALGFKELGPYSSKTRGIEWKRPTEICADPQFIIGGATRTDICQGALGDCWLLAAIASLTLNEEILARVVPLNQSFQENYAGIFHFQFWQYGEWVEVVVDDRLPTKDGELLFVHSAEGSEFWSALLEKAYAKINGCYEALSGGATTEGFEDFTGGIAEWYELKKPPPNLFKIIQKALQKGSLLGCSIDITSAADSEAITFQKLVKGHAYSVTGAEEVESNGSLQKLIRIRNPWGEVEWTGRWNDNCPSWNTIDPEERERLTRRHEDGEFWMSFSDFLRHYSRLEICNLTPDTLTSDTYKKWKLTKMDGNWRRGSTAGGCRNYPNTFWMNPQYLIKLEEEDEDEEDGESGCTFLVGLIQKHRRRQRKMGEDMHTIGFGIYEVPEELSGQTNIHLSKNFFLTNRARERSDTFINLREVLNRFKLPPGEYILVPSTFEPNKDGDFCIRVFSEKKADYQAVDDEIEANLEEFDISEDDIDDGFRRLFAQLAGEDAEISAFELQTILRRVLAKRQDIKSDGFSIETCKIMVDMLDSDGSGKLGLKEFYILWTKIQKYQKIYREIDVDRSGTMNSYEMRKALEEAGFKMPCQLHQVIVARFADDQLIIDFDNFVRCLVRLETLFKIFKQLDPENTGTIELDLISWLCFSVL
T2 sequence (P04632 1-268 partner): T1 sequence (P04632 1-268 partner)
Briefly: in vitro calpain-2 inhibition, succinic-Leu-Tyr-AMC substrate. The following applies: for Ki: Example 13, read-out: Ki Calpain-2; for Ki / IC50: n = 3-4. Type of assay: biochemical. As to the method: as §1, §2

Assay [4] has as its target T1, calpain-1. Conditions: cited from earlier work.
In assay [5] the test system is stratum radiatum of field CA1 in acute rat hippocampal slices. Briefly: field EPSP recording, TBS-induced LTP in acute rat hippocampal slices. Type of assay: cell-based. As to the method: Results are expressed as percent of the average values over a 10 min baseline period and are means±S.E.M. of the indicated number of experiments.
FIG. 3A: Field recording of excitatory postsynaptic potentials (EPSPs) performed in stratum radiatum of field CA1 in acute rat hippocampal slices in the presence or absence of 200 nM of the calpain-2 selective inhibitor, Formula I, (mCalp-I in the drawing). Preincubation with mCalp-I enhances LTP. Results are expressed as percent of the average values over a 10 min baseline period and are means±S.E.M. of the indicated number of experiments.
Results are expressed as percent of the average values over the 10 min baseline period and are means±S.E.M. of the indicated number of experiments.
Generic calpain inhibitors block LTP when administered before LTP induction. Field recording of excitatory postsynaptic potentials (EPSPs; FIG. 2) was performed in stratum radiatum of field CA1 in acute rat hippocampal slices.
A calpain 2-selective inhibitor enhances LTP. […]

The subject of assay [6] is cultured cortical neurons. Nature of the assay: neuroprotection against starvation and oxidative stress (H2O2). Type of assay: cell-based. Conditions: 1.5 μM. The source says: Columns represent means±S.E.M. n=4. *p<0.05; **p<0.01; ***p<0.001. One-way ANOVA followed by Bonferroni test.
Assay [7] has as its system cultured cortical neurons. Briefly: Bic- and 4-AP-induced neuroprotection against starvation, Hoechst staining. Conditions: mCalp-I 200 nM. Type of assay: cell-based. The source says: Neuronal death was observed and quantified by Hoechst staining. 300-500 neurons were counted for each group in three to 6 independent experiments. *p<0.05; ns, no significant difference; one-way ANOVA followed by Bonferroni test. n=3-6. Error Bar indicates SEM
Neuronal death was observed and quantified by Hoechst staining. 300-500 neurons were counted for each group in three to 6 independent experiments. *p<0.05; ns, no significant difference; one-way ANOVA followed by Bonferroni test. n=3-6. Error Bar indicates SEM (FIG. 6).

For assay [8], the target named is T2, calpain-2. Conditions: cited from earlier work.

Entries after “also recorded” stand apart in the source; their conditions may differ. Like-named read-outs stand apart in the source and are kept apart here. Residues, ends and D or L forms follow the SMILES beside them. *: point of attachment. Cbz = O=C(OCc1ccccc1)*; CH2F = FC*

Consider “Calpain-2 C-terminal peptide: calpain-2 PDZ-binding domain specific peptide: TIQLDLISWLSFSVL, or fragment or modification thereof”, for which the “Akt and ERK phosphorylation (pAkt/Akt, pERK/ERK)” value in assay [1] is “no effect”.
As to `CC[C@H](NC(=O)[C@H](CC(C)C)NC(=O)OCc1ccccc1)C(=O)C(=O)NCc1cc(OC)cc(OC)c1` [Formula 1A], in assay [2], the Ki turned out to be 0.181 ± 0.073 µM and the IC50 is 0.379 µM. Also, in assay [3], the “Ratio KiCalpain-1/KiCalpain-2” value worked out at 23.2; the Ki amounted to 0.0078 ± 0.0025 µM; the midpoint of inhibition, the IC50, lay at 0.193 µM. The “difference in activity between the two diasteriomers, inhibition of calpain-2” value in assay [3] (Formula 1A versus S-R-form) is on record as 2000 fold.
With `CC(C)C[C@H](NC(=O)OCc1ccccc1)C(=O)N[C@@H](CC(C)C)C(=O)N[C@@H](Cc1ccc(O)cc1)C(=O)CF` [Calpain inhibitor IV, carboxybenzyl-Leu-Leu-Tyr-CH2-F] (Cbz-Leu-Leu-Tyr-CH2F), in assay [4] (Powers et al, 2002, effect appears to vary with cell-type), the selectivity among calpains result is given as “some selectivity for calpain-1”.
In the case of “Calpain-1 C-terminal peptide: calpain-1 PDZ-binding domain specific peptide: VTFDLFKWLQLTMFA, or fragment or modification thereof”, the “LTP in rat hippocampal slices on un-scaffolding calpain-1” value in assay [5] (calpain-1 PDZ-peptide) is recorded as “greater LTP”. The “Akt and ERK phosphorylation (pAkt/Akt, pERK/ERK)” value in assay [1] was “increased Akt and ERK phosphorylation”. In addition, in assay [6], the “neuroprotection against H2O2 insult” value is “neuroprotection against H2O2 insult” and the neuroprotection against starvation result was “neuroprotection against starvation”.
`CC[C@@H](NC(=O)[C@H](CC(C)C)NC(=O)OCc1ccccc1)C(=O)C(=O)NCc1cc(OC)cc(OC)c1` [Formula 1B]: in assay [2], the Ki came to 514 ± 151 µM and the IC50 was 569 µM. In assay [3], the “Ratio KiCalpain-1/KiCalpain-2” value is 34, the inhibitory constant (Ki) came to 15.6 ± 9.2 µM and the half-inhibitory concentration (IC50) was 19.4 µM.
Consider `CC(C)C(NC(=O)OCc1ccccc1)C(=O)NC(C=O)Cc1ccccc1` (stereo not drawn) [Calpain inhibitor III, Z-Val-Phe-CHO, reference compound] (Cbz-Val-Phe-aldehyde; configuration not given here), for which, in assay [5] (10 μM added prior to TBS), the “LTP after theta-burst stimulation” value is “blocks LTP; also recorded: prevented the formation of LTP” and the “short-term potentiation (increase in fEPSPs that follows TBS)” value was “did not block short-term potentiation”. For the same compound, the “blocked Bic- and 4-AP-induced neuroprotection against starvation” value in assay [7] is given as “blocked”. Moreover, in assay [1] (pre-treatment 10 μM), the “effect of calpain-1 peptide on Akt and ERK” value is “blocks the effect of calpain-1 peptide on Akt and ERK”. Also, the inhibition constant (Ki) in assay [8] (stated for generic inhibitor, source not given, read-out: Ki for calpain-2) is roughly 0.008 µM.
`CCCNC(=O)C(=O)C(Cc1ccccc1)NC(=O)C(CC(C)C)NC(=O)OCc1ccccc1` (stereo not drawn) [Formula XII, z-Leu-Phe-CONH-nPr]: the Ki in assay [4] (Li et al, 1996, read-out: Ki for calpain-1 (μ-calpain), literature) is 0.05 µM; in assay [4] (U.S. Pat. No. 6,235,929, column 14, Table I, read-out: Ki for calpain-1), 15 µM; in assay [8] (Li et al, 1996, read-out: Ki for calpain-2 (m-calpain), literature), 0.35 µM.

As usually defined, the Ki is a measure of affinity in units of concentration, obtained from inhibition or displacement. As usually defined, the IC50 is the point on the concentration scale where inhibition reaches its midpoint. A low value points to greater potency in that assay.
